From PubChem BioAssay AID2060346 (Molecular Pharmacology Branch, DTP, NCI, 2025)

Tested on: CN0375-F725-PDC multi-cell spheroids, viability
Assay: Anticancer human tumor CN0375-F725-PDC patient-derived colon carcinoma cell line growth inhibition [TAK]
Conditions: for IC50: curve of first compound; for viability, T/C: stronger effect = lower value; active means viability on the fitted dose curve at most 10% of control; inactive means the rest
From the text: Combinatorial screen of targeted agents with TAK-243 and ipatasertib in multi-cell type tumor spheroids
A high-throughput screen of multi-cell type tumor spheroids was designed to identify active combinations of targeted small molecules and TAK-243 or ipatasertib. Complex spheroids include a stromal component modeled by human endothelial cells (HUVEC) and fibroblasts modeled by human mesenchymal stem cells (MSCs). The concentration ranges selected for each drug and investigational agent were based upon clinically achievable concentrations if the clinical Cmax of the agent was known.
Compounds. The drugs and investigational agents: TAK-243 (785004), ipatasertib (767898), everolimus (733504), selumetinib (741078), bortezomib (756655), trametinib (758246), ixazomib (758254), vemurafenib (761431), dabrafenib (764134), sapanisertib (764658), alpelisib (765974), and copanlisib (816437), were obtained from the National Cancer Institute (NCI) Developmental Therapeutics Program Chemical Repository. The FDA-approved anticancer drug set is available from the NCI Developmental Therapeutics Program. […] The stock solutions were prepared in dimethyl sulfoxide (DMSO, Sigma-Aldrich, St. Louis, MO, cat. D2650) at 800-fold the tested concentration and stored at -70 degrees C prior to their use. All drugs and investigational agents were tested over a range starting from a high concentration at or near the clinical Cmax and decreasing in half-log increments. If the clinical Cmax for an agent had not been determined, the highest concentration tested was 10 microM.
NCI60 Cell Culture. NCI60 cell lines were obtained from the NCI Developmental Therapeutics Program Tumor Repository. For each lot of cells, the Repository performed Applied Biosystems AmpFLSTR Identifiler testing with PCR amplification to confirm consistency with the published Identifier STR profile for each cell line. Cells were kept in continuous culture for no more than 20 passages. The optimal seeding densities for each of the cell lines at each time point assessed were determined prior to performing the concentration response studies. Briefly, the NCI60 human tumor lines were grown as monolayers in RPMI 1640 medium supplemented with 10% FBS and 2 mmol/L L-glutamine.
An additional 2 lines were from the NCI60 cell line panel including melanomas, MALME-3M and SK-MEL-2. Pooled donor human umbilical vein endothelial cells (HUVEC, Lonza, cat. CC-2519) and human mesenchymal stem cells (hMSC, Lonza, cat. PT-2501) were purchased from Lonza (Walkersville, MD).
PDMR cell lines were grown in complete medium (DC medium): Dulbecco's modified Eagle's medium (DMEM)/F12 supplemented with 5% fetal bovine serum (FBS), 2 mM L-glutamine, 100 U/mL penicillin and 100 µg/ml streptomycin, 0.4 µg/ml hydrocortisone, 10 ng/ml epidermal growth factor (EGF) recombinant human protein, 24 µg/mL adenine, and 0.1 mg/mL primocin. During culture from frozen stock vials, PDMR cells were cultured in the same medium containing 10 µM Y-27632 (see Table 3). The PDCs were cultured in complete DMEM/F12 media without 10 microM Y-27632 dihydrochloride for at least two passages prior to the screen. The pooled donor HUVEC and hMSC were cultured in endothelial cell growth medium 2 (PromoCell, Heidelberg, Germany, cat. C-22011) and mesenchymal stem cell growth medium 2 (PromoCell, cat. C-28009), respectively. For all experiments, HUVEC and hMSC were used at passages </=5.
For the pre-screen, cell seeding densities were determined from a titration spanning the range from 5,000 to 313 cells per well. The mct-spheroids including 60% malignant cells, 25% HUVEC and 15% MSC dispensed as a mixture into U-bottom Ultra-Low Attachment 384-well plates (Corning, NY)
High-throughput Drug Combination Screening.
Prior to their inoculation into 384-well plates, malignant cells, HUVEC, and hMSC were removed from T flasks using TrypLE express (Thermo Fisher Scientific, cat. 12605036) and harvested by centrifugation for 5 min at 233 x g. […]
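Further: spheroids exposed to drugs for seven days.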

CC(C)n1nc(-c2ccc3oc(N)nc3c2)c2c(N)ncnc21 + CC(C)NCC(C(=O)N1CCN(c2ncnc3c2C(C)CC3O)CC1)c1ccc(Cl)cc1
inactive: viability, T/C (second compound 0.3 µM, first compound 0.000316 µM) 108% | viability, T/C (second compound 0.3 µM, first compound 0.001 µM) 102% | viability, T/C (second compound 0.3 µM, first compound 0.00316 µM) 95.8% | viability, T/C (second compound 0.3 µM, first compound 0.01 µM) 79.2% | viability, T/C (second compound 0.3 µM, first compound 0.0316 µM) 71.1% | viability, T/C (second compound 0.3 µM, first compound 0.1 µM) 59.5% | viability, T/C (second compound 0.949 µM, first compound 0.000316 µM) 96.9% | viability, T/C (second compound 0.949 µM, first compound 0.001 µM) 99.5% | viability, T/C (second compound 0.949 µM, first compound 0.00316 µM) 89.7% | viability, T/C (second compound 0.949 µM, first compound 0.01 µM) 80.3% | viability, T/C (second compound 0.949 µM, first compound 0.0316 µM) 68.3% | viability, T/C (second compound 0.949 µM, first compound 0.1 µM) 57.5% | viability, T/C (second compound 3 µM, first compound 0.000316 µM) 90.6% | viability, T/C (second compound 3 µM, first compound 0.001 µM) 95.3% | viability, T/C (second compound 3 µM, first compound 0.00316 µM) 87.4% | viability, T/C (second compound 3 µM, first compound 0.01 µM) 80.3% | viability, T/C (second compound 3 µM, first compound 0.0316 µM) 65.9% | viability, T/C (second compound 3 µM, first compound 0.1 µM) 54.4% | viability, T/C (second compound 9.49 µM, first compound 0.000316 µM) 84.9% | viability, T/C (second compound 9.49 µM, first compound 0.001 µM) 91.4% | viability, T/C (second compound 9.49 µM, first compound 0.00316 µM) 82.6% | viability, T/C (second compound 9.49 µM, first compound 0.01 µM) 77.3% | viability, T/C (second compound 9.49 µM, first compound 0.0316 µM) 60.3% | viability, T/C (second compound 9.49 µM, first compound 0.1 µM) 46.9% | viability, T/C (second compound 30 µM, first compound 0.000316 µM) 67.7% | viability, T/C (second compound 30 µM, first compound 0.001 µM) 69.2% | viability, T/C (second compound 30 µM, first compound 0.00316 µM) 75.6% | viability, T/C (second compound 30 µM, first compound 0.01 µM) 68.5% | viability, T/C (second compound 30 µM, first compound 0.0316 µM) 44.4% | viability, T/C (second compound 30 µM, first compound 0.1 µM) 36.6%
24.3 nM: IC50 (second compound 30 µM)
> 100 nM: IC50 (second compound 0.3 µM) | IC50 (second compound 0.949 µM) | IC50 (second compound 3 µM)
76.5 nM: IC50 (second compound 9.49 µM)

CCCS(=O)(=O)Nc1ccc(F)c(C(=O)c2c[nH]c3ncc(-c4ccc(Cl)cc4)cc23)c1F + CC(C)NCC(C(=O)N1CCN(c2ncnc3c2C(C)CC3O)CC1)c1ccc(Cl)cc1
3750 nM: IC50 (second compound 30 µM)
> 100000 nM: IC50 (second compound 0.3 µM) | IC50 (second compound 0.949 µM) | IC50 (second compound 3 µM)
inactive: viability, T/C (second compound 0.3 µM, first compound 0.316 µM) 105% | viability, T/C (second compound 0.3 µM, first compound 1 µM) 120% | viability, T/C (second compound 0.3 µM, first compound 3.16 µM) 106% | viability, T/C (second compound 0.3 µM, first compound 10 µM) 66.1% | viability, T/C (second compound 0.3 µM, first compound 31.6 µM) 26.5% | viability, T/C (second compound 0.3 µM, first compound 100 µM) 121% | viability, T/C (second compound 0.949 µM, first compound 0.316 µM) 101% | viability, T/C (second compound 0.949 µM, first compound 1 µM) 109% | viability, T/C (second compound 0.949 µM, first compound 3.16 µM) 99.8% | viability, T/C (second compound 0.949 µM, first compound 10 µM) 58.8% | viability, T/C (second compound 0.949 µM, first compound 31.6 µM) 10.6% | viability, T/C (second compound 0.949 µM, first compound 100 µM) 105% | viability, T/C (second compound 3 µM, first compound 0.316 µM) 98.2% | viability, T/C (second compound 3 µM, first compound 1 µM) 110% | viability, T/C (second compound 3 µM, first compound 3.16 µM) 89% | viability, T/C (second compound 3 µM, first compound 10 µM) 54.7% | viability, T/C (second compound 3 µM, first compound 31.6 µM) 9.13% | viability, T/C (second compound 3 µM, first compound 100 µM) 99.8% | viability, T/C (second compound 9.49 µM, first compound 0.316 µM) 95.7% | viability, T/C (second compound 9.49 µM, first compound 1 µM) 95.5% | viability, T/C (second compound 9.49 µM, first compound 3.16 µM) 79.8% | viability, T/C (second compound 9.49 µM, first compound 10 µM) 24.1% | viability, T/C (second compound 9.49 µM, first compound 31.6 µM) 27.2% | viability, T/C (second compound 9.49 µM, first compound 100 µM) 79.5% | viability, T/C (second compound 30 µM, first compound 0.316 µM) 86% | viability, T/C (second compound 30 µM, first compound 1 µM) 82.2% | viability, T/C (second compound 30 µM, first compound 3.16 µM) 54.7% | viability, T/C (second compound 30 µM, first compound 10 µM) 13.9% | viability, T/C (second compound 30 µM, first compound 31.6 µM) 2.73% | viability, T/C (second compound 30 µM, first compound 100 µM) 52.6%
8150 nM: IC50 (second compound 9.49 µM)
